In patent US20050101671A1, “Compounds and compositions for delivering active agents” (Emisphere Technologies, Inc., priority 1995, published 2005):

What was measured:
[1] = In vivo delivery of heparin by oral administration in rats, APTT (Table 6); set-up: species or system rat; conditions: heparin 100 mg/kg
Method: In a test tube, 900 mg of carrier were dissolved in 3 mL of propylene glycol, and 0.299 g of sodium heparin was dissolved in 3 mL of water. The solutions were mixed by vortex. Sodium hydroxide (10M) was added to the resulting mixture until a solution was obtained. The pH was then adjusted to 7.4±0.5 with concentrated hydrochloric acid, and the final solution was sonicated at 40° C. for 30 minutes.
A group of fasted, conscious rats were administered the dosing compositions by oral gavage. Blood samples were collected by cardiac puncture following the administration of ketamine (44 mg/kg). Heparin activity was determined by utilizing the activated partial thromboplastim time (APTT) according to the method of Henry, J. B., Clinical Diagnosis and Management by Laboratory Methods; Philadelphia. Pa.; W B Saunders (1979).
Heparin (100 mg/kg) was administered by oral gavage to rats, and heparin activity was determined according to the procedure of Example 44.

[2] = In vivo delivery of rhGH in rats (Table 1), serum rhGH by ELISA; set-up: species or system rat; conditions: oral, no carrier, rhGH 6 mg/kg
Method: Dosing compositions were prepared by mixing the modified amino acids and recombinant human growth hormone (rhGH) as listed in Table 1 below in a phosphate buffer solution at a pH of about 7-8.
Rats were administered the dosing composition by sublingual, oral gavage, intraduodenal administration, or colonic administration. Delivery was evaluated by using an ELISA assay for rhGH from Medix Biotech, Inc. For intracolonic administration, a sample was prepared and dosed to fasted rats at 25 mg/kg of carrier in a buffered solution containing propylene glycol (0-50%) and 1 mg/kg rhGH.

[3] = Delivery agent enhancement of rhGH bioavailability, subcutaneous administration in rats (Table 2); assay type: in vivo, rat; conditions: no delivery agent (0.0 mg/kg), rhGH alone (Comparative Example 16A)
Method: The delivery agents were reconstituted with distilled water and adjusted to pH 7.2-8.0 with either aqueous hydrochloric acid or aqueous sodium hydroxide. A stock solution of rhGH was prepared by mixing rhGH, D-mannitol and glycine and dissolving this mixture in 2% glycerol/water. The stock solution was then added to the delivery agent solution. Several delivery agent to active agent ratios were studied.
Male Sprague-Dawley rats weighing 200-250 g were fasted for 24 hours and administered ketamine (44 mg/kg) and chlorpromazine (1.5 mg/kg) 15 minutes prior to dosing. The rats were administered one of the dosing solutions described above by subcutaneous injection, intranasal instillation, or sublingual instillation. Blood samples were collected serially from the tail artery for serum calcium concentration determination or serum rhGH concentrations. The dose-of rhGH administered in these experiments was 0.
Serum rhGH concentrations were quantified by an rhGH enzyme immunoassay test kit.

## O=C(O)CCCCCCCNC(=O)/C=C/c1ccccc1F [Compound XII]
[1]; carrier 300 mg/kg
  Mean Peak APTT: 49.53 ± 17.1 s

## Heparin [reference compound]
[1]; no carrier
  Mean Peak APTT: 20.7 ± 0.17 s

## rhGH: recombinant human growth hormone, active agent dosed alone as comparative example
[2]
  Mean Peak Serum Levels of rhGH: <10 ± 10 ng/mL
[3]
  Peak Serum [rhGH]: 4 ± 2 ng/mL
